This passage reports IC50 results from patent publication US9376418B2, “Substituted pyridine spleen tyrosine kinase (SYK) inhibitors” (Merck Sharp & Dohme Corp., priority 2012, dated 2016).

Where only a bound is given, the exact number is not on record here.

The test addresses T1, recombinant human GST-SYK (Homo sapiens, UniProt P43405).
T1 construct: purchased Carna Biosciences 08-176
The test can be described thus: Homogeneous Time-Resolved Fluorescence (HTRF) assay for the recombinant human Syk enzyme. Format: biochemical. To be noted: HTRF assay, recombinant human GST-SYK; IC50 given as class symbols; read-out: rhSYK Activity. Summed up: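 GST-hSYK ([…]) was preincubated with inhibitor (0.1% DMSO) for 10 min at room temperature in Tris-HCl pH 7.5 with tween 20 and DTT. Biotinylated peptide (250 nM), Mg (5 mM) and ATP (25 μM) were added for 45 min. The reaction was quenched with EDTA, and phosphotyrosine was read by Eu-antibody/SA-APC HTRF after 30 min.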
On to `Cc1cc(Nc2nccc(C(F)(F)F)n2)cc(-c2ccnc(N[C@@H](C)CO)c2)c1` [Example 15.48, (2S)-2-{[4-(3-methyl-5-{[4-(trifluoromethyl)pyrimidin-2-yl]amino}phenyl)pyridin-2-yl]amino}propan-1-ol], for which the IC50 is under 100 nM.
As for `CC(=O)Nc1cc(Nc2nccc(C(F)(F)F)n2)cc(-c2ccc(N3CC[C@H]3C(=O)O)nc2)c1` [Example 7.2, (2S)-1-{5-[3-(acetylamino)-5-{[4-(trifluoromethyl)pyrimidin-2-yl]amino}phenyl]pyridin-2-yl}azetidine-2-carboxylic acid], the figure is under 100 nM.
As for `Cc1cc(Nc2nccc(C(F)(F)F)n2)cc(-c2ccc(C(=O)NC3CCS(=O)(=O)C3)nc2)c1` (stereo not shown) [Example 16.54, N-(1,1-dioxidotetrahydrothiophen-3-yl)-5-(3-methyl-5-{[4-(trifluoromethyl)pyrimidin-2-yl]amino}phenyl)pyridine-2-carboxamide], the IC50 is under 100 nM.
In the case of `Cc1cc(Nc2nccc(C(C)C)n2)cc(-c2ccc(N[C@H]3CC[C@H](C(=O)O)CC3)nc2)c1` [Example 2.108, trans-4-{[5-(3-methyl-5-{[4-(1-methylethyl)pyrimidin-2-yl]amino}phenyl)pyridin-2-yl]amino}cyclohexanecarboxylic acid], the IC50 is under 100 nM.
On to `CC(=O)c1cncc(-c2cc(C)cc(Nc3nccc(C(F)(F)F)n3)c2)c1` [Example 2.48, 1-[5-(3-methyl-5-{[4-(trifluoromethyl)pyrimidin-2-yl]amino}phenyl)pyridin-3-yl]ethanone], for which the IC50 is under 100 nM.
With `CCOC(=O)CCc1ccc(-c2cc(C)cc(Nc3nccc(C)n3)c2)cn1` [Example 2.87, ethyl 3-(5-{3-methyl-5-[(4-methylpyrimidin-2-yl)amino]phenyl}pyridin-2-yl)propanoate], the IC50 was in the range of 100 to 1000 nM.
For the molecule `Cc1cc(Nc2nccc(C)n2)cc(-c2ccc(C3(O)CCC(C(=O)O)C(C)(C)C3)nc2)c1` (stereo not shown) [Example 9.39, 4-hydroxy-2,2-dimethyl-4-(5-{3-methyl-5-[(4-methylpyrimidin-2-yl)amino]phenyl}pyridin-2-yl)cyclohexanecarboxylic acid], the IC50 was under 100 nM.
For `Cc1cc(Nc2nccc(C(F)(F)F)n2)cc(-c2ccc(N3CCN(C)C(=O)C3)nc2)c1` [Example 7.33, 1-methyl-4-[5-(3-methyl-5-{[4-(trifluoromethyl)pyrimidin-2-yl]amino}phenyl)pyridin-2-yl]piperazin-2-one], the IC50 fell in the range of 100 to 1000 nM.
Consider `Cc1cc(Nc2nccc(C(F)(F)F)n2)cc(-c2ccc(C(O)(CO)CO)nc2)c1` [Example 9.33, 2-[5-(3-methyl-5-{[4-(trifluoromethyl)pyrimidin-2-yl]amino}phenyl)pyridin-2-yl]propane-1,2,3-triol], for which the IC50 was under 100 nM.
Take `CCOC(=O)/C=C/c1ccc(-c2cc(C)cc(Nc3nccc(C(F)(F)F)n3)c2)cn1` [Example 22.1, Ethyl-3-[5-(3-methyl-5-{[4-(trifluoromethyl)pyrimidin-2-yl]amino}phenyl)pyridin-2-yl]prop-2-enoate]: the IC50 fell in the range of 100 to 1000 nM.
Take `Cc1cc(Nc2nccc(C(F)(F)F)n2)cc(-c2ccc(C(=O)NCc3ncc[nH]3)nc2)c1` [Example 16.53, N-(1H-imidazol-2-ylmethyl)-5-(3-methyl-5-{[4-(trifluoromethyl)pyrimidin-2-yl]amino}phenyl)pyridine-2-carboxamide]: the IC50 fell in the range of 100 to 1000 nM.
As to `Cc1cc(Nc2nccc(C(F)(F)F)n2)cc(-c2ccc(N[C@@H](CC(N)=O)C(=O)O)nc2)c1` [Example 7.94, N~2~-[5-(3-methyl-5-{[4-(trifluoromethyl)pyrimidin-2-yl]amino}phenyl)pyridin-2-yl]-L-asparagine], the IC50 is under 100 nM.
`Cc1cc(Nc2nccc(C(F)(F)F)n2)cc(-c2ccnc(N3CCCC4(CCCCO4)C3)c2)c1` (stereo not shown) [Example 15.26, N-{3-methyl-5-[2-(1-oxa-8-azaspiro[5.5]undec-8-yl)pyridin-4-yl]phenyl}-4-(trifluoromethyl)pyrimidin-2-amine]: the IC50 lay in the range of 1000 to 10000 nM.
In the case of `Cc1cc(Nc2nccc(C(F)(F)F)n2)cc(-c2ccc(N3CCC([C@@H]4CCCC[C@H]4C(=O)O)CC3)nc2)c1` [Example 7.147, (1R,2S)-2-{1-[5-(3-methyl-5-{[4-(trifluoromethyl)pyrimidin-2-yl]amino}phenyl)pyridin-2-yl]piperidin-4-yl}cyclohexanecarboxylic acid], the IC50 is under 100 nM.
As for `CCCOC1CCCN(c2cc(-c3cc(C)cc(Nc4nccc(C(F)(F)F)n4)c3)ccn2)C1` (stereo not shown) [Example 15.79, N-{3-methyl-5-[2-(3-propoxypiperidin-1-yl)pyridin-4-yl]phenyl}-4-(trifluoromethyl)pyrimidin-2-amine], the figure is 1000 to 10000 nM; as for `CCOC(=O)CCc1cncc(-c2cc(C)cc(Nc3nccc(C)n3)c2)c1` [Example 2.88, ethyl 3-(5-{3-methyl-5-[(4-methylpyrimidin-2-yl)amino]phenyl}pyridin-3-yl)propanoate], 100 to 1000 nM; as for `O=C(O)CCc1cccc(-c2cccc(Nc3nccc(C(F)(F)F)n3)c2)n1` [Example 2.17, 3-[6-(3-{[4-(trifluoromethyl)pyrimidin-2-yl]amino}phenyl)pyridin-2-yl]propanoic acid], 100 to 1000 nM.
With `CC1(C)CC(O)(c2ccc(-c3cc(F)cc(Nc4nccc(C(F)(F)F)n4)c3)cn2)CCC1C(=O)O` (single isomer, unassigned) [Example 9.14, (1R,4S or 1S,4R)-4-[5-(3-fluoro-5-{[4-(trifluoromethyl)pyrimidin-2-yl]amino}phenyl)pyridin-2-yl]-4-hydroxy-2,2-dimethylcyclohexanecarboxylic acid], the IC50 is under 100 nM.
Next, `CC(=O)Nc1cc(Nc2nccc(C(F)(F)F)n2)cc(-c2ccc(N3CCNC(=O)CC3)nc2)c1` [Example 7.4, N-(3-[6-(5-oxo-1,4-diazepan-1-yl)pyridin-3-yl]-5-{[4-(trifluoromethyl)pyrimidin-2-yl]amino}phenyl)acetamide]: under 100 nM; `Cc1cc(Nc2nccc(C(F)(F)F)n2)cc(-c2ccc(-c3cn(CC(=O)O)nn3)nc2)c1` [Example 25.2, {4-[5-(3-Methyl-5-{[4-(trifluoromethyl)pyrimidin-2-yl]amino}phenyl)pyridin-2-yl]-1H-1,2,3-triazol-1-yl}acetic acid]: under 100 nM; `Cc1cc(Nc2nccc(C(F)(F)F)n2)cc(-c2ccnc(C(O)(CO)CO)c2)c1` [Example 9.65, 2-[4-(3-methyl-5-{[4-(trifluoromethyl)pyrimidin-2-yl]amino}phenyl)pyridine-2-yl]propane-1,2,3-triol]: under 100 nM.
Consider `Cc1cc(Nc2nccc(C(F)(F)F)n2)cc(-c2cccnc2F)c1` [Example 2.45, N-[3-(2-fluoropyridin-3-yl)-5-methylphenyl]-4-(trifluoromethyl)pyrimidin-2-amine], for which the IC50 was under 100 nM.
`CC(=O)N1CCN(C(=O)c2ccc(-c3cc(C)cc(Nc4nccc(C(F)(F)F)n4)c3)cn2)CC1` [Example 16.24, N-(3-{6-[(4-acetylpiperazin-1-yl)carbonyl]pyridin-3-yl}-5-methylphenyl)-4-(trifluoromethyl)pyrimidin-2-amine]: the IC50 is under 100 nM.
As to `Cc1cc(Nc2nccc(C(F)(F)F)n2)cc(-c2ccc(C3(O)CCCC(C(=O)O)C3)nc2)c1` (stereo not shown) [Example 9.21, 3-hydroxy-3-[5-(3-methyl-5-{[4-(trifluoromethyl)pyrimidin-2-yl]amino}phenyl)pyridin-2-yl]cyclohexanecarboxylic acid], the IC50 was under 100 nM.
In the case of `Cc1cc(Nc2nccc(C(F)(F)F)n2)cc(-c2cncc(C3(O)CCC(O)CC3)c2)c1` (stereo not shown) [Example 9.76, 1-[5-(3-methyl-5-{[4-(trifluoromethyl)pyrimidin-2-yl]amino}phenyl)pyridin-3-yl]cyclohexane-1,4-diol], the IC50 is under 100 nM.
`Cc1cc(Nc2nccc(C(F)(F)F)n2)cc(-c2ccc(N3CCC[C@@]3(C)C(=O)O)nc2)c1` [Example 7.121, 2-methyl-1-[5-(3-methyl-5-{[4-(trifluoromethyl)pyrimidin-2-yl]amino}phenyl)pyridin-2-yl]-L-proline]: the IC50 was under 100 nM.
Turning to `Cc1cc(Nc2nccc(C(F)(F)F)n2)cc(-c2ccc(NC3CCNC3=O)nc2)c1` (stereo not shown) [Example 7.68, 3-{[5-(3-methyl-5-{[4-(trifluoromethyl)pyrimidin-2-yl]amino}phenyl)pyridin-2-yl]amino}pyrrolidin-2-one], the IC50 was under 100 nM.
Regarding `Cc1cc(Nc2nccc(C(F)(F)F)n2)cc(-c2ccc(N[C@H](C(=O)O)C(C)C)nc2)c1` [Example 7.91, N-[5-(3-methyl-5-{[4-(trifluoromethyl)pyrimidin-2-yl]amino}phenyl)pyridin-2-yl]-L-valine], the IC50 is under 100 nM.
With `Cc1cc(Nc2nccc(C(F)(F)F)n2)cc(-c2ccc(C(=O)N3C[C@H](O)C[C@H]3C)nc2)c1` [Example 16.41, (3R,5R)-5-methyl-1-{[5-(3-methyl-5-{[4-(trifluoromethyl)pyrimidin-2-yl]amino}phenyl)pyridin-2-yl]carbonyl}pyrrolidin-3-ol], the IC50 is under 100 nM.
With `Cc1cc(Nc2nccc(C(F)(F)F)n2)cc(-c2ccc(N3CC(C4CCC(C(=O)O)CC4)C3)nc2)c1` (stereo not shown) [Example 7.145, 4-{1-[5-(3-methyl-5-{[4-(trifluoromethyl)pyrimidin-2-yl]amino}phenyl)pyridin-2-yl]azetidin-3-yl}cyclohexanecarboxylic acid], the IC50 was under 100 nM.
`Cc1cc(Nc2nccc(C(F)(F)F)n2)cc(-c2ccnc(NCC(C)(C)O)c2)c1` [Example 15.60, 2-methyl-1-{[4-(3-methyl-5-{[4-(trifluoromethyl)pyrimidin-2-yl]amino}phenyl)pyridin-2-yl]amino}propan-2-ol]: the IC50 is 100 to 1000 nM.
